# Literature values, collected in patent US8313770B2, “Modifying drug release in suspensions of ionic resin systems” (NEOS Therapeutics, LP, priority 2007, dated 2012).
structure (smiles),measurement,value
"COc1ccccc1OCC(O)CO (stereo not shown) [Guaifenesin, 3(2-methoxyphenoxy)-1,2-propanediol]",Solubility in water and alcohol,soluble
